# Test results from ChEMBL document CHEMBL1201862, “PubChem BioAssay data set” (2004).
#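 Compound exposure: 48 hours, 5 concentrations, 96-well plates. Here, GI50 denotes the concentration required for 50% inhibition of growth.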 Activity calls are given as the source filed them. Rule as the data show it: active = GI50 up to about 1.1 µM and inactive = higher. *1 amine or outer side, *2 acyl side, *3 side chain or, on linkers, in order; H or OH if unused. Where a SMILES comes first, the peptide text is derived from it. Non-standard residues stand in square brackets, D forms with d. Residues, ends and D or L forms follow the SMILES beside them. Bridges are numbered along the chain shown (N, C = ends). [ ]: non-standard residue; d: D form. ξ: configuration not given here. *: point of attachment. X36 = CC[C@H](C)[C@@H](N[*:1])[C@@H](O)CC(=O)O[C@H](C(=O)[C@H](C)C(=O)[*:2])C(C)C; NMeY = CN[C@@H](Cc1ccc(O)cc1)C(=O)O; ξF = NC(Cc1ccccc1)C(=O)O; Cbz = O=C(OCc1ccccc1)*
# How the values were obtained:
# BT-549 = test: DTP human tumour cell line panel, 48 h
# MDA-N = test: DTP human tumour cell line panel, 48 h
SMILES,GI50 (BT-549),GI50 (MDA-N)
CCOC(=O)c1nc2ccc(C(F)(F)F)cc2nc1Nc1ccc(OC)cc1,27.9 µM (inactive),
CC/C(Cl)=N\OC(=O)Nc1ccc(F)c(Cl)c1,16.6 µM (inactive),18.2 µM (inactive)
CN1C(=O)N/C(=C\c2ccc(S(=O)(=O)NN)cc2)C1=O,> 100 µM (inactive),> 100 µM (inactive)
O=C(COc1ccc(OCC(=O)N2C(=O)CN(c3ccc(Cl)cc3)C2=S)cc1)N1C(=O)CN(c2ccc(Cl)cc2)C1=S,31.5 µM (inactive),29.9 µM (inactive)
c1ccc2/c3[nH]/c(c2c1)=N\c1ccc(cc1)-c1nc2ccc(cc2o1)/N=c1/[nH]/c(c2ccccc12)=N/c1ccc2nc(oc2c1)-c1ccc(cc1)\N=3,> 100 µM (inactive),27.4 µM (inactive)
O=C(O)c1ccc(CI)cc1,,15.5 µM (inactive)
C=C1c2nc3ccccc3n2C=C(c2ccc(Cl)cc2)N1c1ccc(OCCN2CCOCC2)cc1,39.3 µM (inactive),42.2 µM (inactive)
Cc1cc(O)c2c3c(ccc2c1)C(=O)c1c(O)cccc1C3=O [TETRANGULOL],55.5 µM (inactive),0.188 µM (active)
CC(=O)O[C@H]1CCC2[C@@H]3CCC4Nc5oncc5C[C@]4(C)C3CC[C@@]21C (some centres undefined),> 10 µM (inactive),> 10 µM (inactive)
Cc1c(NC(=O)CCl)c(=O)oc2c(C)c3occc(=O)c3cc12,,16.1 µM (inactive)
COc1ccc(/N=C/C=C/Nc2ccc(OC)cc2)cc1,4.18 µM (inactive),4.78 µM (inactive)
CCOC(=O)CNC(=O)C(Cc1ccccc1)NC(=O)OCc1ccccc1 (centres undefined) (Cbz-[ξF]-Gly-OEt),> 100 µM (inactive),> 100 µM (inactive)
Clc1ccc(CCNC2(c3cc4ccccc4s3)CCCCC2)cc1Cl,28.2 µM (inactive),32.3 µM (inactive)
CN(C)c1nc(N)nc(CCl)n1,40 µM (inactive),
O=C1CC(C(=O)O)Cc2c(Br)ccc(O)c21 (centres undefined),> 100 µM (inactive),> 100 µM (inactive)
CCOC(=O)/C=C(/N=P(c1ccccc1)(c1ccccc1)c1ccccc1)C(F)(F)F,,> 10 µM (inactive)

SMILES,GI50 (BT-549),GI50 (MDA-N)
CCCC(=O)Nc1cc(/C=C/C(=O)N2CC(CCl)c3c2cc(O)c2[nH]cc(C)c32)n(C)c1 (centres undefined),< 2.5e-05 µM (active),< 2.5e-05 µM (active)
CN(C)/C=N/S(=O)(=O)c1nn2c(C=O)c(-c3ccc(Cl)cc3)nc2s1,0.713 µM (active),
CC1CCC(C(=O)O)(C(Br)C(=O)O)CC1 (centres undefined),> 100 µM (inactive),> 100 µM (inactive)
O=C1CS(=O)(=O)C(c2cccc(Oc3ccccc3)c2)N1C1CC1 (centres undefined),41.7 µM (inactive),26.7 µM (inactive)
Cc1ccc(-n2cc(-c3ccc(Cl)cc3)c3c(NNC(=S)NCc4ccccc4)ncnc32)cc1,17.9 µM (inactive),14.9 µM (inactive)
O=C(C=P(c1ccccc1)(c1ccccc1)c1ccccc1)C12CC3CC(CC(C3)C1)C2,18.2 µM (inactive),14.3 µM (inactive)
CSCCC(NCc1c(O)ccc2c(-c3ccccc3)cc(=O)oc12)C(=O)O (centres undefined),,> 100 µM (inactive)
CCOC(=O)C1=NN(c2ccc(C)cc2)C2(c3ccccc3)C=C(c3ccccc3)N(C)CCN12 (centres undefined),> 100 µM (inactive),> 100 µM (inactive)
CC1(C)COC(c2cccc(C3=NC(C)(C)CO3)c2)=N1,> 100 µM (inactive),
CC[C@H](C)[C@H]1NC(=O)[C@@H](N)[C@@H](C)OC(=O)[C@H](Cc2ccc(OC)cc2)N(C)C(=O)[C@@H]2CCCN2C(=O)[C@H](CC(C)C)NC(=O)[C@@H](C)C(=O)[C@H](C(C)C)OC(=O)C[C@@H]1O (H-T[X36]LP[NMeY](Me); ester 1-C),20.2 µM (inactive),
C[N+](C)(C)C1(C(=O)[O-])CC1,,> 100 µM (inactive)
S=C=Nc1ccc(CSc2nc3ccccc3[nH]2)cc1,,15.9 µM (inactive)
CCSc1[nH]c(Nc2nc(-c3ccccc3)n(-c3ccccc3)n2)c(C(N)=O)c1C(N)=O,,> 10 µM (inactive)
[O-][n+]1onc2c1/C(=N/O)CCC2,,> 100 µM (inactive)
Cn1c(=O)c2c(nc3n(Cc4ccccc4)c(=O)c(NCCCBr)cn23)n(C)c1=O,> 100 µM (inactive),
COC(=O)c1cc2c(cc1Cl)Sc1nnc(Nc3ccccc3)n1S2(=O)=O,4.46 µM (inactive),
